US20100218415A1, “HYDROXYMETHYLFURFURAL ETHERS FROM SUGARS AND HIGHER ALCOHOLS” (FURANIX TECHNOLOGIES B.V., priority 2007, published 2010)
Read-outs that look alike come from different tables or passages of the source.

Assay: Fuel solubility: blends with commercial diesel
Type: physicochemical
Source text: Fuel solubility is a primary concern for diesel fuel applications. Not all highly polar oxygenates have good solubility in the current commercial diesel fuels.

miscibility with commercial diesel (5 vol % blend with commercial diesel) | miscibility with commercial diesel (25 vol % blend with commercial diesel) | miscibility with commercial diesel (40 vol % blend with commercial diesel) | miscibility with commercial diesel | Compound
completely miscible | phase separation occurs | phase separation occurs |  | CCOCc1ccc(C=O)o1 [EMF, ethoxymethylfurfural]
 |  |  | completely miscible | CCCCCCCCOCc1ccc(C=O)o1 [OMF, 5-(octyloxymethyl)furfural]
